Source: US8846746B2, “Pyrazole compound and pharmaceutical use thereof” (Japan Tobacco Inc., priority 2011, dated 2014)

biological target: human SGLT1 (Homo sapiens (Human), UniProt P13866); assay: SGLT1 inhibitory activity: 14C-AMG uptake into CHO-K1 cell line stably expressing human SGLT1; assay type: cell-based; details: 14C-AMG uptake, CHO-K1 cells expressing human SGLT1
Procedure, shortened: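 Human SGLT1 was stably expressed in CHO-K1 cells. Cells were first held 20 min in sodium-free buffer, then exposed to compound in Na(+)/BSA buffer with tracer and AMG (2 mM in the added solution).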

Sequence of human SGLT1 (P13866 whole entry): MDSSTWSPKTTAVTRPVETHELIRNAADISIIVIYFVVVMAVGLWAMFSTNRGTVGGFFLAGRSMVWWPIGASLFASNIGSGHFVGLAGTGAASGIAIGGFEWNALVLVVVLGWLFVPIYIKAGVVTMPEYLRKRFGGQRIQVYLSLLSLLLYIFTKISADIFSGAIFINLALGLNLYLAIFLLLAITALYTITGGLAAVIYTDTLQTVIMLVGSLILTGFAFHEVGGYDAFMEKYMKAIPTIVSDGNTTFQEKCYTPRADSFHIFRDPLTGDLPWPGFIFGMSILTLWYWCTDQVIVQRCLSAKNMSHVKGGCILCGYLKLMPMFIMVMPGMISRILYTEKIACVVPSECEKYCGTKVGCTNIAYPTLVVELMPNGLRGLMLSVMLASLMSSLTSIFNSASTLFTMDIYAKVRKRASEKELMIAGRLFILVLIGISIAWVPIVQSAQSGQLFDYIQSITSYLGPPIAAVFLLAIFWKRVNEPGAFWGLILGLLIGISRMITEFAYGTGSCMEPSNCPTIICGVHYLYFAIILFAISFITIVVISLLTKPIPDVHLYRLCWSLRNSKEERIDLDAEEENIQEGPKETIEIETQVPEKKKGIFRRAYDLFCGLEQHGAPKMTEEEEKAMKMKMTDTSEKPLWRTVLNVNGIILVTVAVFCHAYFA

First: CCCc1cccc(-c2cc(NC(=O)C3(C)CNC(=O)C3)nn2-c2ccccc2)c1 (racemic) [Example 21]
Second: CCCc1cccc(-c2cc(NC(=O)[C@H]3CNC(=O)N3C)nn2-c2ccccc2)c1 [Example 6, (R)-3-methyl-2-oxoimidazolidine-4-carboxylic acid [1-phenyl-5-(3-propylphenyl)-1H-pyrazol-3-yl]amide]
The IC50 of the first is 94-fold higher: 680 nM for the first, 7.2 nM for the second.

Compared with `CC(C)c1cccc(-c2cc(NC(=O)[C@@H]3CNC(=O)C3)nn2-c2ccccc2)c1` [Example 55], `CC(C)Cc1cccc(-c2cc(NC(=O)[C@H]3CNC(=O)C3)nn2-c2ccccc2)c1` [Example 70] is 11-fold lower in IC50: 18 nM for the first, 1.6 nM for the second. The second is the more potent here.

`Cc1ccccc1-n1nc(NC(=O)[C@H]2CNC(=O)C2)cc1-c1cccc(OC(F)(F)F)c1` [Example 156] and `Cc1ccccc1-n1nc(NC(=O)[C@H]2CNC(=O)[C@@H]2C)cc1-c1cccc(OC(F)(F)F)c1` [Example 223] are within 1.5-fold of each other in IC50: 2.7 nM for the first, 2.3 nM for the second.

`CCCc1cccc(-c2cc(NC(=O)[C@H]3CNC(=O)C3)nn2Cc2ccccc2)c1` [Example 98] and `CCCc1cccc(-c2cc(NC(=O)C3CNC(=O)C3)nn2CC(C)C)c1` (racemic) [Example 18] are within 1.5-fold of each other in IC50: 30 nM for the first, 31 nM for the second.

Compared with `O=C1CCC(C(=O)Nc2cc(-c3cccc(OC(F)(F)F)c3)n(-c3cccc(F)c3)n2)CN1` (single isomer, unassigned) [Example 168], `O=C1C[C@@H](C(=O)Nc2cc(-c3cccc(C(F)(F)F)c3)n(-c3cccc(F)c3)n2)CN1` [Example 213] is 2.6-fold lower in IC50: 36 nM for the first, 14 nM for the second. The second is the more potent here.

Compared with `CCCc1cccc(-c2cc(NC(=O)[C@H]3CNC(=O)C3)nn2-c2ccc(Cl)cc2)c1` [Example 36], `CCC(F)(F)c1cccc(-c2cc(NC(=O)[C@H]3CNC(=O)C3)nn2-c2ccc(Cl)cc2)c1` [Example 141] is 1.7-fold lower in IC50: 9.4 nM for the first, 5.5 nM for the second.

`O=C1C[C@H](C(=O)Nc2cc(-c3cccc(C4CC4)c3)n(-c3ccccc3)n2)CN1` [Example 93] and `CCCc1cccc(-c2cc(NC(=O)C3CC(=O)NC3C)nn2-c2ccccc2)c1` (single isomer, unassigned) [Example 19] are within 1.5-fold of each other in IC50: 31 nM for the first, 33 nM for the second.

First: CCC(F)(F)c1cccc(-c2cc(NC(=O)[C@H]3CNC(=O)[C@@H]3C)nn2-c2ccccc2Cl)c1 [Example 208]
Second: C[C@H]1C(=O)NC[C@@H]1C(=O)Nc1cc(-c2cccc(OC(F)(F)F)c2)n(-c2ccc(F)cc2)n1 [Example 2, (3R,4R)-4-methyl-5-oxopyrrolidine-3-carboxylic acid[1-(4-fluorophenyl)-5-(3-(trifluoromethoxy)phenyl)-1H-pyrazol-3-yl]amide]
The IC50 of the first is 2.6-fold lower: 1.3 nM for the first, 3.4 nM for the second. The first is the more potent here.

Compared with `CCCc1cccc(-c2cc(NC(=O)C3CNC(=O)C3)nn2C2CCCCC2)c1` (racemic) [Example 32], `CCCc1cccc(-c2cc(NC(=O)[C@@H]3CNC(=O)C3)nn2CCC2CCCCC2)c1` [Example 114] is 2.2-fold higher in IC50: 12 nM for the first, 27 nM for the second. The first is the more potent here.

In the case of `CCCc1cccc(-c2cc(NC(=O)[C@H]3CNC(=O)C3)nn2C(F)(F)F)c1` [Example 86], the IC50 is reported as 54 nM.

same assay, conditions: 14C-AMG uptake, CHO-K1 cells stably expressing human SGLT1

First: CC(C)CCOc1cccc(-c2cc(NC(=O)[C@@H]3CNC(=O)C3)nn2-c2ccccc2)c1 [Example 319]
Second: CCCOc1cccc(-c2cc(NC(=O)[C@@H]3CNC(=O)C3)nn2-c2ccccc2)c1 [Example 284]
The IC50 of the first is 2.7-fold lower: 28 nM for the first, 75 nM for the second. The first is the more potent here.

First: C[C@@H](OCc1cc(F)cc(-c2cc(NC(=O)[C@@H]3CNC(=O)C3)nn2-c2cccc(F)c2)c1)C(F)(F)F [Example 521]
Second: C[C@@H](OCc1cc(Cl)cc(-c2cc(NC(=O)[C@@H]3CNC(=O)C3)nn2-c2cccc(F)c2)c1)C(F)(F)F [Example 578]
The IC50 of the first is 1.7-fold lower: 5.15 nM for the first, 8.5 nM for the second.

Going from `COCCOc1cccc(-n2nc(NC(=O)[C@@H]3CNC(=O)C3)cc2-c2cccc(CO[C@H](C)C(F)(F)F)c2)c1` [Example 455] to `CCOc1cccc(-n2nc(NC(=O)[C@@H]3CNC(=O)C3)cc2-c2cccc(CO[C@H](C)C(F)(F)F)c2)c1` [Example 452], the IC50 falls from 3.1 nM to 1.7 nM (1.8-fold).

Going from `C[C@@H](OCc1cc(Cl)cc(-c2cc(NC(=O)[C@@H]3CNC(=O)C3)nn2-c2ccccc2)c1)C(F)(F)F` [Example 241, (S)-5-oxopyrrolidine-3-carboxylic acid{5-[3-chloro-5-((R)-2,2,2-trifluoro-1-methylethoxymethyl)phenyl]-1-phenyl-1H-pyrazol-3-yl}amide] to `C[C@@H](OCc1cc(F)cc(-c2cc(NC(=O)[C@@H]3CNC(=O)C3)nn2-c2cccc(Cl)c2)c1)C(F)(F)F` [Example 514], the IC50 falls from 9.95 nM to 4 nM (2.5-fold). The second is the more potent here.

`C[C@@H](OCc1cccc(-c2cc(NC(=O)[C@@H]3CNC(=O)C3)nn2-c2ccccc2Cl)c1)C(F)(F)F` [Example 475] and `C[C@@H](OCc1cccc(-c2cc(NC(=O)[C@@H]3CNC(=O)C3)nn2-c2cccc(OCc3ccccc3)c2)c1)C(F)(F)F` [Example 438] are the same in IC50: 3.1 nM for the first, 3.1 nM for the second.

First: C[C@@H](OCc1cc(F)cc(-c2cc(NC(=O)[C@@H]3CNC(=O)C3)nn2-c2ccc(Cl)cc2)c1)C(F)(F)F [Example 236, (S)-5-oxopyrrolidine-3-carboxylic acid{1-(4-chlorophenyl)-5-[3-fluoro-5-((R)-2,2,2-trifluoro-1-methylethoxymethyl)phenyl]-1H-pyrazol-3-yl}amide]
Second: C[C@@H](OCc1cc(F)cc(-c2cc(NC(=O)[C@H]3CNC(=O)O3)nn2-c2ccc(Cl)cc2)c1)C(F)(F)F [Example 571]
The IC50 of the first is 1.7-fold lower: 5.35 nM for the first, 9.3 nM for the second. The first is the more potent here.

`O=C1C[C@H](C(=O)Nc2cc(-c3cc(F)cc(COC(C(F)(F)F)C(F)(F)F)c3)n(-c3ccccc3)n2)CN1` [Example 585] and `CC(C)(OCc1cc(F)cc(-c2cc(NC(=O)[C@@H]3CNC(=O)C3)nn2-c2ccccc2)c1)C(F)(F)F` [Example 567] are within 1.5-fold of each other in IC50: 13 nM for the first, 14 nM for the second.

Going from `O=C1C[C@H](C(=O)Nc2cc(-c3cccc(COC(C(F)(F)F)C(F)(F)F)c3)n(-c3ccc(Cl)cc3)n2)CN1` [Example 576] to `COCCOc1cc(-n2nc(NC(=O)[C@@H]3CNC(=O)C3)cc2-c2cccc(CO[C@H](C)C(F)(F)F)c2)ccc1F` [Example 456], the IC50 falls from 19 nM to 3.4 nM (5.6-fold). The second is the more potent here.

Compared with `O=C1C[C@H](C(=O)Nc2cc(-c3cc(Cl)cc(COCC(F)(F)F)c3)n(-c3ccccc3F)n2)CN1` [Example 587], `COc1cccc(-n2nc(NC(=O)[C@@H]3CNC(=O)C3)cc2-c2cccc(COCC(F)(F)F)c2)c1F` [Example 480] is 5.9-fold lower in IC50: 40 nM for the first, 6.8 nM for the second. The second is the more potent here.

Compared with `CCCc1cccc(-c2cc(NC(=O)[C@@H]3CNC(=O)C3)nn2-c2cccc(OCC)c2)c1` [Example 379], `CCCc1cccc(-c2cc(NC(=O)[C@@H]3CNC(=O)C3)nn2-c2cccc(CCC)c2)c1` [Example 497] is 1.6-fold lower in IC50: 5.25 nM for the first, 3.3 nM for the second. The second is the more potent here.

`CCCc1cccc(-c2cc(NC(=O)[C@@H]3CNC(=O)C3)nn2-c2cccc(COC(C)C)c2)c1` [Example 459] and `CCCc1cccc(-c2cc(NC(=O)[C@@H]3CNC(=O)C3)nn2-c2ccc(F)c(OC(C)C)c2)c1` [Example 391] are within 1.5-fold of each other in IC50: 4.8 nM for the first, 3.75 nM for the second.

`CCCc1cccc(-c2cc(NC(=O)[C@@H]3CNC(=O)N3CC)nn2-c2ccccc2)c1` [Example 295] and `CCCc1cccc(-c2cc(NC(=O)[C@H]3CNC(=O)N3C(C)C)nn2-c2ccccc2)c1` [Example 328] are the same in IC50: 29 nM for the first, 29 nM for the second.

`CCCc1cccc(-c2cc(NC(=O)[C@@H]3CNC(=O)C3)nn2-c2ccc(F)c(OCC)c2)c1` [Example 390] and `C/C=C/c1cccc(-n2nc(NC(=O)[C@@H]3CNC(=O)C3)cc2-c2cccc(CCC)c2)c1` [Example 494] are within 1.5-fold of each other in IC50: 9.4 nM for the first, 9.1 nM for the second.

Compared with `O=C1C[C@H](C(=O)Nc2cc(-c3cccc(COCC(F)(F)F)c3)n(-c3cccc(OC4COC4)c3)n2)CN1` [Example 509], `O=C1C[C@@H](C(=O)Nc2cc(-c3cccc(COCC(F)(F)F)c3)n(-c3ccccc3)n2)CN1` [Example 280] is 3.9-fold lower in IC50: 38 nM for the first, 9.8 nM for the second.

First: CCCc1cccc(-c2cc(NC(=O)[C@@H]3CNC(=O)C3)nn2-c2ccc(OCc3ccccc3)cc2)c1 [Example 370]
Second: CCCc1cccc(-c2cc(NC(=O)[C@H]3CNC(=O)O3)nn2-c2ccccc2)c1 [Example 258]
The IC50 of the first is 3.6-fold lower: 6.35 nM for the first, 23 nM for the second. The first is the more potent here.

Compared with `O=C1NC[C@H](C(=O)Nc2cc(-c3cccc(COCC(F)(F)F)c3)n(-c3ccccc3)n2)N1` [Example 349], `CCCCc1cccc(-c2cc(NC(=O)[C@@H]3CNC(=O)N3)nn2-c2ccccc2)c1` [Example 268] is 8.5-fold lower in IC50: 72 nM for the first, 8.5 nM for the second. The second is the more potent here.

Going from `CCCCc1cccc(-c2cc(NC(=O)[C@H]3CNC(=O)O3)nn2-c2ccccc2)c1` [Example 306] to `COC(C)(C)c1cccc(-c2cc(NC(=O)[C@@H]3CNC(=O)N3)nn2-c2ccccc2)c1` [Example 270], the IC50 rises from 13 nM to 45 nM (3.5-fold).

Compared with `CCOc1cccc(-n2nc(NC(=O)[C@@H]3CNC(=O)C3)cc2-c2cccc(OC(F)(F)F)c2)c1` [Example 443], `O=C1C[C@H](C(=O)Nc2cc(-c3cccc(OC(F)(F)F)c3)n(-c3cccc(Cl)c3)n2)CN1` [Example 504] is 2.1-fold higher in IC50: 11 nM for the first, 23 nM for the second.

First: COCCOc1ccc(F)c(-n2nc(NC(=O)[C@@H]3CNC(=O)C3)cc2-c2cccc(COCC(F)(F)F)c2)c1 [Example 462]
Second: CCOc1cccc(-n2nc(NC(=O)[C@@H]3CNC(=O)C3)cc2-c2cccc(OC(F)(F)F)c2)c1F [Example 477]
The IC50 of the first is 7.4-fold lower: 3.4 nM for the first, 25 nM for the second.

`CC(C)(OCc1cc(F)cc(-c2cc(NC(=O)[C@H]3CNC(=O)N3)nn2-c2ccc(F)cc2)c1)C(F)(F)F` [Example 602] showed an IC50 of 28 nM.

same assay, conditions: CHO-K1, at 0.1 uM

Compared with `COCCOc1cccc(-n2nc(NC(=O)[C@@H]3CNC(=O)C3)cc2-c2cccc(OC(F)(F)F)c2)c1F` [Example 479], `CCCN1C(=O)NC[C@H]1C(=O)Nc1cc(-c2cccc(OC(F)(F)F)c2)n(-c2ccccc2)n1` [Example 298] is lower in inhibition at 0.1 µM: 46% for the first, 38% for the second.

First: CCCc1cccc(-c2cc(NC(=O)[C@@H]3CNC(=O)C3)nn2CC(F)(F)F)c1 [Example 67]
Second: O=C1CC[C@@H](C(=O)Nc2cc(-c3cccc(COCC(F)(F)F)c3)n(-c3ccccc3)n2)N1 [Example 549]
The inhibition at 0.1 µM of the first is lower: 29% for the first, 41% for the second.

For `CC(C)(C)S(=O)(=O)c1cccc(-c2cc(NC(=O)[C@@H]3CNC(=O)C3)nn2-c2ccccc2)c1` [Example 569], the inhibition at 0.1 µM was 29%.

same assay, conditions: CHO-K1, at 0.3 uM

`CCCc1cccc(-c2cc(NC(=O)[C@@H]3CNC(=O)N3C(C)C)nn2-c2ccccc2)c1` [Example 327] showed an inhibition at 0.3 µM of 15%.
